The record followed here is patent US10584361B2, “Algae having intracellular lipid particles and high lipid content” (THE UNIVERSITY OF AKRON, priority 2012, dated 2020).

Like-named read-outs stand apart in the source and are kept apart here.

The subject of experiment [1] is algae. Kind of experiment: Lipid enhancement with glycerol (algae re-suspended in salts solution). Format: cell-based. The conditions noted are these: 0.5, 1 and 5 g/L glycerol (all systems), within 24 h; pH 5; then decreased slightly. Here is the method: The specific procedure was: • i. […] Rotate 20 min at 40% output (Glas-Col) • vi. Centrifuge at 3620 g for 5 min • vii.
Algae were first cultured and then collected by centrifuge.
The thin layer chromatography analysis was performed the same as in Experiment 2.

The subject of experiment [2] is algae. Particulars: 0.5 g/L sodium acetate, within 6 hours, increased from 40%; pH 5; then decreased.
Experimental: For the dry weight analysis, algal cells were collected by centrifuging at 300 g for 10 min. After washing with deionized water once, the precipitant of the sample was transferred to pre-weighed aluminum plates and dried to a constant weight in an oven at 70 degrees C.
For the lipid analysis, the algal cells were collected at 300 g for 10 min. Then the lipid content of the precipitant from the sample was analyzed with the same lipid extraction procedure, which is modified from the Folch method. The specific procedure was: • i. Add 8 mL of chloroform and methanol mixture (2:1, v/v) to the sample • ii. Add 0.1 mL of HCl (5 M) to the sample • iii. Gradually add deionized water to the sample until a second phase appears • iv. Vortex for 3 min at full power (Vortex-Genie 2) • v. Rotate 20 min at 40% output (Glas-Col) • vi. Centrifuge at 3620 g for 5 min • vii. Collect the lower chloroform phase into a pre-weighed drying vessel • viii. Add 5 mL of chloroform and methanol mixture (2:1, v/v) to the sample and repeat steps iv, v, vi and vii • ix. Air dry the vessel to a constant weight and measure the weight.
Algae were first cultured and then collected by centrifuge. After washing with deionized water once, algae were re-suspended into salts solution (Table 1). […] During the batch studies, the pH of all systems was maintained at 5 with 0.05 mol/L NaOH and 0.05 mol/L HCl. […]

As for `OCC(O)CO` [glycerol], the lipid content result in the experiment with algae [1] is on record as “about 40 % of the dry weight”.
Turning to `CC(=O)[O-].[Na+]` [sodium acetate], the lipid content in the experiment with algae [2] was 65 % of the dry weight.
